Measured values published in patent US6933308B2 (Bristol-Myers Squibb Company, priority 2002, dated 2005).

Tested on: KCNQ channels
Assay: Thallium flux assay for KCNQ channel openers
Format: cell-based
Conditions: HEK-293 cells stably transfected with a KCNQ family member; for Min conc. response: minimal active concentration: lowest concentration giving signal >= 4 SD of negative controls; for EC50: thallium flux, 10 point concentration series
Procedure: Thallium Flux Assay for KCNQ Channel Openers.
The thallium assay is a modification of that published by Weaver and is referenced in its entirety (Weaver, C. D. WO 02/31508, 2002).
Approximately 20,000 cells/well of an HEK-293 cell line stably transfected with one of the members of the KCNQ family were plated into clear-bottom, black-walled, poly-D-lysine coated, 384 well assay plates in 20 μl/well of low chloride plating medium. Low chloride plating medium was composed of the following: sodium gluconate, 109 mM; potassium gluconate, 5.4 mM; hemi-calcium gluconate, 3.6 mM; magnesium sulfate, 0.8 mM; sodium bicarbonate, 26.2 mM; sodium phosphate monobasic, 1.2 mM; glutamine, 2 mM; glucose, 5 mM; 4-(2-hydroxyethyl)-1-piperazineethanesulfonic acid (HEPES) (pH 7.3) 10 mM, MEM vitamin solution (10× concentration of vitamins, Gibco/LifeTechnologies 11120-052) and MEM amino acid solution (1× concentration of amino acids, Gibco/LifeTechnologies 11130-051).
Following overnight incubation in a 5% CO2 incubator at 37° C., the cells in the plates were loaded with 20 μl/well of a dye loading solution containing the commercially available thallium-sensitive fluorescent dye BTC-AM, the acetomethoxy ester of BTC (see U.S. Pat. No. 5,501,980) (2 μM) and pluronic acid F-127 (Molecular Probes P 6867) (0.02% w/v) in chloride free assay buffer. Chloride free assay buffer was composed of the following: sodium gluconate, 140 mM; potassium gluconate, 2.5 mM; hemi-calcium gluconate, 6 mM; hemi-magnesium gluconate, 2 mM; glucose, 5 mM; HEPES (pH 7.3), 10 mM.
Following incubation in the dye loading solution for from 45-90 min at room temperature, the dye loading solution was removed by aspiration and replaced with 40 μl/well of chloride free assay buffer.
Prior to addition to cell plates, test compound and standard compounds were dissolved in DMSO to 3 mM concentration. Compounds were then diluted from the 3 mM stock to 100-fold over the final assay concentration in DMSO. Finally, compounds in DMSO were diluted from 100-fold over the final assay concentration to 5-fold over the final assay concentration in chloride free assay buffer.
Ten μl/well of compounds at 5-fold over the final assay concentration were then added to the cell plates. This represents a 1:5 dilution, yielding the final test concentration. The wells used for test compounds were A1-P20. Wells A21-P22 contained a standard opener and a maximally efficacious concentration (positive control). Wells A23-P24 contained chloride free assay buffer containing 1% DMSO (negative control).
Following addition of test compounds, the plates were loaded onto the Molecular Devices FLIPR. The 488 nm line of the argon laser was used to excite the BTC and the emission filter was a 540(+/−30) nm. Images were collected at 1 Hz. Ten seconds of baseline were collected and then the FLIPR was used to add 13 μl/well of a stimulus buffer composed of 7.5 mM Tl2SO4 in chloride free assay buffer. Images were collected for an additional 60 seconds.
For data analysis, the amplitude of the average of the negative controls was subtracted from all wells. The amplitudes of the test compounds were then compared to the value of four standard deviations of the negative control wells. The lowest concentration of a test compound sufficient to generate a signal amplitude greater than or equal to four standard deviations from the amplitude of the negative controls was defined as the minimal active concentration.
For generating EC50 values, compounds were serially diluted in 1:3 volume increments to produce a 10 point concentration series. EC50 values were calculated by fitting the resulting amplitudes to a single-site logistic equation. EC50 was defined as the concentration of test compound required to yield 50% of the maximal response. Maximal response (Maximal opening) was the largest signal amplitude divided by the negative control amplitude generated by any concentration of a test compound. […]

EC50 [nM] | Compound | Min conc. response [µM]
1000 to 20000 | CC(NC(=O)c1sc(CCN2CCCC2)nc1C(F)(F)F)c1cccc(N(C)C)c1 (centres unmarked) [Example 9, N-[1-[3-(dimethylamino)phenyl]ethyl]-2-[2-(1-pyrrolidinyl)ethyl]-4-(trifluoromethyl)-5-thiazolecarboxamide] | 10
1000 to 20000 | CC(NC(=O)c1sc(CCN2CCCC2)nc1C(F)(F)F)c1cccc(C(F)(F)F)c1 (centres unmarked) [Example 10, 2-[2-(1-pyrrolidinyl)ethyl]-4-(trifluoromethyl)-N-[1-[3-(trifluoromethyl)phenyl]ethyl]-5-thiazolecarboxamide] | 30
1000 to 20000 | CC(NC(=O)c1sc(CCN2CCCC2)nc1C(F)(F)F)c1cccc(OC(F)(F)F)c1 (centres unmarked) [Example 13, 2-[2-(1-pyrrolidinyl)ethyl]-4-(trifluoromethyl)-N-[1-[3-(trifluoromethoxy)phenyl]ethyl]-5-thiazolecarboxamide] | 10
1000 to 20000 | CC(NC(=O)c1sc(CCN(C)CCN(C)C)nc1C(F)(F)F)c1cccc(OC(F)(F)F)c1 (centres unmarked) [Example 19] | 3
1000 to 20000 | CC(NC(=O)c1sc(CCN2CCCCC2)nc1C(F)(F)F)c1cccc(N(C)C)c1 (centres unmarked) [Example 23, N-[1-[3-(dimethylamino)phenyl]ethyl]-2-[2-(1-piperidinyl)ethyl]-4-(trifluoromethyl)-5-thiazolecarboxamide] | 0.3
1000 to 20000 | CC(NC(=O)c1sc(CCN2CCC(O)CC2)nc1C(F)(F)F)c1cccc(OC(F)(F)F)c1 (centres unmarked) [Example 26, 2-[2-(4-hydroxy-1-piperidinyl)ethyl]-4-(trifluoromethyl)-N-[1-[3-(trifluoromethoxy)phenyl]ethyl]-5-thiazolecarboxamide] | 10
1000 to 20000 | CC(NC(=O)c1sc(CCN2CCC(O)CC2)nc1C(F)(F)F)c1cccc(C(F)(F)F)c1 (centres unmarked) [Example 27, 2-[2-(4-hydroxy-1-piperidinyl)ethyl]-4-(trifluoromethyl)-N-[1-[3-(trifluoromethyl)phenyl]ethyl]-5-thiazolecarboxamide] | 30
< 50 | CCCN(CCc1nc(C(F)(F)F)c(C(=O)NC(C)c2cccc(OC(F)(F)F)c2)s1)CC1CC1 (centres unmarked) [Example 28, 2-[2-[(cyclopropylmethyl)propylamino]ethyl]-N-[1-[3-(trifluoromethoxy)phenyl]ethyl]-4-(trifluoromethyl)-5-thiazolecarboxamide] | 0.3
< 50 | CCCN(CCc1nc(C(F)(F)F)c(C(=O)NC(C)c2cccc(C(F)(F)F)c2)s1)CC1CC1 (centres unmarked) [Example 30, 2-[2-[(cyclopropylmethyl)propylamino]ethyl]-N-[1-[3-(trifluoromethyl)phenyl]ethyl]-4-(trifluoromethyl)-5-thiazolecarboxamide] | 3
1000 to 20000 | C[C@H](NC(=O)c1sc(CCN2CCCCC2)nc1C(F)(F)F)c1cccc(-c2cccnc2)c1 [Example 32, 2-[2-(1-piperidinyl)ethyl]-N-[1-[3-(3-pyridinyl)phenyl]ethyl]-4-(trifluoromethyl)-5-thiazolecarboxamide] | 3

More lines, now with the values behind:

Compound | EC50 [nM] | Min conc. response [µM]
CC(NC(=O)c1sc(CCN(C)Cc2ccco2)nc1C(F)(F)F)c1cccc(-c2cccnc2)c1 (centres unmarked) [Example 12, 2-[2-[(2-furanylmethyl)methylamino]ethyl]-N-[1-[3-(3-pyridinyl)phenyl]ethyl]-4-(trifluoromethyl)-5-thiazolecarboxamide] | < 50 | 3
CC(NC(=O)c1sc(CCN(C)Cc2ccco2)nc1C(F)(F)F)c1cccc(OC(F)(F)F)c1 (centres unmarked) [Example 14, 2-[2-[(2-furanylmethyl)methylamino]ethyl]-4-(trifluoromethyl)-N-[1-[3-(trifluoromethoxy)phenyl]ethyl]-5-thiazolecarboxamide] | < 50 | 3
CCN(CC)CCc1nc(C(F)(F)F)c(C(=O)NC(C)c2cccc(N(C)C)c2)s1 (centres unmarked) [Example 16, 2-[2-(diethylamino)ethyl]-N-[1-[3-(dimethylamino)phenyl]ethyl]-4-(trifluoromethyl)-5-thiazolecarboxamide] | 1000 to 20000 | 0.3
CC(NC(=O)c1sc(CCN(C)Cc2ccncc2)nc1C(F)(F)F)c1cccc(C(F)(F)F)c1 (centres unmarked) [Example 17, 2-[2-[(4-pyridylmethyl)methylamino]ethyl]-4-(trifluoromethyl)-N-[1-[3-(trifluoromethyl)phenyl]ethyl]-5-thiazolecarboxamide] | 1000 to 20000 | 3
CC(NC(=O)c1sc(CCN(C)CCN(C)C)nc1C(F)(F)F)c1cccc(C(F)(F)F)c1 (centres unmarked) [Example 20] | 1000 to 20000 | 30
CC(NC(=O)c1sc(CCN2CCN(C)CC2)nc1C(F)(F)F)c1cccc(OC(F)(F)F)c1 (centres unmarked) [Example 21, 2-[2-(4-methyl-1-piperazinyl)ethyl]-N-[1-[3-(3-trifluoromethoxy)phenyl]ethyl]-4-(trifluoromethyl)-5-thiazolecarboxamide] | 1000 to 20000 | 0.3
CC(NC(=O)c1sc(CCN2CCCCC2)nc1C(F)(F)F)c1cccc(OC(F)(F)F)c1 (centres unmarked) [Example 22, 2-[2-(1-piperidinyl)ethyl]-N-[1-[3-(3-trifluoromethoxy)phenyl]ethyl]-4-(trifluoromethyl)-5-thiazolecarboxamide] | 50 to 1000 | 0.3
CC(NC(=O)c1sc(CCN2CCCCC2)nc1C(F)(F)F)c1cccc(C(F)(F)F)c1 (centres unmarked) [Example 24, 2-[2-(1-piperidinyl)ethyl]-N-[1-[3-(3-trifluoromethyl)phenyl]ethyl]-4-(trifluoromethyl)-5-thiazolecarboxamide] | 1000 to 20000 | 0.3
C[C@H](NC(=O)c1sc(CCN2CCCCC2)nc1C(F)(F)F)c1cccc(N2CCOCC2)c1 [Example 25, N-[1-[3-(4-morpholinyl)phenyl]ethyl]-2-[2-(1-piperidinyl)ethyl]-4-(trifluoromethyl)-5-thiazolecarboxamide] | 1000 to 20000 | 3
CCCN(CCc1nc(C(F)(F)F)c(C(=O)NC(C)c2cccc(N(C)C)c2)s1)CC1CC1 (centres unmarked) [Example 29, 2-[2-[(cyclopropylmethyl)propylamino]ethyl]-N-[1-[3-(dimethylamino)phenyl]ethyl]-4-(trifluoromethyl)-5-thiazolecarboxamide] | 1000 to 20000 | 3
CCN(CC)CCc1nc(C(F)(F)F)c(C(=O)N[C@@H](C)c2cccc(-c3cccnc3)c2)s1 [Example 31] | 1000 to 20000 | 0.3
CCC(CC)NCCc1nc(C(F)(F)F)c(C(=O)NC(C)c2cccc(OC(F)(F)F)c2)s1 (centres unmarked) [Example 33, 2-[2-(3-pentylamino)ethyl]-N-[1-[3-(trifluoromethoxy)phenyl]ethyl]-4-(trifluoromethyl)-5-thiazolecarboxamide] | 1000 to 20000 | –
CCC(CC)NCCc1nc(C(F)(F)F)c(C(=O)NC(C)c2cccc(C(F)(F)F)c2)s1 (centres unmarked) [Example 34, 2-[2-(3-pentylamino)ethyl]-N-[1-[3-(trifluoromethyl)phenyl]ethyl]-4-(trifluoromethyl)-5-thiazolecarboxamide] | 1000 to 20000 | 3
C[C@H](NC(=O)c1sc(CCNCc2ccco2)nc1C(F)(F)F)c1cccc(-c2cccnc2)c1 [Example 35, 2-[2-[(2-furanylmethyl)amino]ethyl]-N-[1-[3-(3-pyridinyl)phenyl]ethyl]-4-(trifluoromethyl)-5-thiazolecarboxamide] | 1000 to 20000 | 10
